Assay results taken from patent publication US10519169B2, “3-(1H-pyrrolo[2,3-C]pyridin-2-yl)-1 H-pyrazolo[4,3-B]pyridines and therapeutic uses thereof” (Samumed, LLC, priority 2015, dated 2019).

Legend:
Type in all cases: cell-based
SW480 colon cancer cells = experiment: Cell viability assay (CellTiter-Blue), SW480 cells; conditions: Homo sapiens; for EC50: 96 h, four days, CellTiter-Blue; for inhibition at 10 µM: given for EC50 >10 μM, read-out: percent inhibition at 10 μM
Experimental: Representative compounds were screened using the following assay procedure to assess the effect on cell viability as described below.
Each compound was dissolved in DMSO as a 10 mM stock and used to prepare compound source plates. Serial dilution (1:3, 8-point dose-response curves from […]) and compound transfer was performed using the ECHO 550 (Labcyte, Sunnyvale, Calif.) into 96-well clear bottom, black-walled plates (Corning-Costar).
Approximately 2×10^3 SW480 colon cancer cells were seeded into each well and allowed to incubate in the presence or absence of compound for four days at 37° C./5% CO2. Eight replicates of DMSO-treated cells served as controls and cells treated with compound were performed in duplicate.
After incubation, 20 μL of CellTiter-Blue (Promega) was added to each well allowed to incubate for approximately 3 hours. This reagent was a buffered solution which contains resazurin, metabolically active cells were able to reduce rezarurin (blue) into resorufin (pink) which was highly fluorescent. This measured fluorescence was used as a readout for cell viability.
After incubation, the plates were read at Ex 560 nm Em 590 nm (Cytation 3, BioTek). Dose-response curves were generated and EC50 concentration values were calculated using non-linear regression curve fit in the GraphPad Prism (San Diego, Calif.) or Dotmatics' Studies Software (Bishops Stortford, UK). For EC50 of >10 μM, the percent inhibition at 10 μM is provided.

IL-6 = IL-6 inhibition in LPS-stimulated THP-1 cells (HTRF); conditions: Homo sapiens; for EC50: LPS 500 ng/mL, 22 hours, IL6 HTRF; for inhibition at 10 µM: given for EC50 >10 μM, LPS, IL6, at 10 M [sic], read-out: percent inhibition at 10 M
Experimental: Human monocyte cell line (THP-1 cells; Catalog # TIB-202, ATCC, Manassas, Va.) were cultured in Roswell Park Memorial Institute (RPMI) 1640 Medium (Catalog #21870-100, Buffalo, N.Y.) with 1% L-glutamine, 1% HEPES, 1% Sodium Pyruvate, 2% Sodium Bicarbonate supplemented with 100 units/mL penicillin, 50 μg/mL streptomycin, 2-mercaptoethanol (0.05 mM) [basal medium] and 10% fetal bovine serum (Catalog #16140089, Life Technologies, Carlsbad, Calif.) at 37° C. and 5% CO2.
THP-1 cells were cultured in basal media with 1% FBS for 24 hours before the start of the assay. Each compound was dissolved in DMSO as a 10 mM stock and used to prepare compound source plates. Serial dilution (1:3, 10-point dose-response curves starting from 10 μM) and compound transfer was performed using the ECHO 550 (Labcyte, Sunnyvale, Calif.) into 384-well white low volume assay plates (Greiner Bio-One) with appropriate DMSO backfill for a final DMSO concentration of 0.1%. THP-1 cells were plated at 5000 cells/well in the 384-well plates and incubated at 37° C. for 2 h. 500 ng/mL of LPS was added after 2 hours and cells were incubated for another 22 hours at 37° C. Plates were spun in a centrifuge for 1 minute at […] and a mixture of anti-IL6 XL665, and anti-IL6 Cryptate diluted in reconstitution buffer (Cisbio Inc.) was added to each well. Following incubation for 3 hrs at room temperature, Homogeneous Time-Resolved Fluorescence (HTRF) was measured using the Envision (Perkin Elmer) at 665 nm and […]. The ratio of fluorescence at 665 nm to 620 nm was used as a readout for IL6 quantification. All samples were processed in duplicate. Readings were normalized to DMSO treated cells and normalized activities were utilized for EC50 calculations using the dose-response log (inhibitor) vs. response-variable slope (four parameters) nonlinear regression feature available in GraphPad Prism 5.0 (or Dotmatics). For EC50 of >10 μM, the percent inhibition at […] is provided.

[1] = system: primary human fibroblasts derived from IPF patients (LL29 cells) treated with TGF-β1; experiment: Inhibition of fibrotic process, αSMA staining in TGF-β1 treated LL29 fibroblasts; conditions: Fibroblast; for EC50: 96 h, TGF-β1 20 ng/mL, 4 days, % cells positive for αSMA
Excerpt: Representative compounds were screened using primary human fibroblasts (derived from IPF patients) treated with TGF-β1 to determine their ability to inhibit the fibrotic process.
Primary human fibroblasts derived from IPF patients (LL29 cells) [^1Xiaoqiu Liu, et. al., “Fibrotic Lung Fibroblasts Show Blunted Inhibition by cAMP Due to Deficient cAMP Response Element-Binding Protein Phosphorylation”, Journal of Pharmacology and Experimental Therapeutics (2005), 315(2), 678-687; ^2Watts, K. L., et. al., “RhoA signaling modulates cyclin D1 expression in human lung fibroblasts; implications for idiopathic pulmonary fibrosis”, Respiratory Research (2006), 7(1), 88] were obtained from American Type Culture Collection (ATCC) and expanded in F12 medium supplemented with 15% Fetal Bovine Serum and Penicillin/Streptomycin.
Each compound was dissolved in DMSO as a 10 mM stock and used to prepare compound source plates. Serial dilution (1:2, 11-point dose-response curves from […] to […]) and compound transfer was performed using the ECHO 550 (Labcyte, Sunnyvale, Calif.) into 384-well clear bottom assay plates (Greiner Bio-One) with appropriate DMSO backfill for a final DMSO concentration of 0.1%. LL29 cells are plated at 1,500 cells/well in 80 μL/well F12 medium supplemented with 1% Fetal Bovine Serum. One hour after addition of the cells, TGF-β1 (Peprotech; 20 ng/mL) was added to the plates to induce fibrosis (ref. 1 and 2 above). Wells treated with TGF-β1 and containing DMSO were used as controls. Cells were incubated at 37° C. and 5% CO2 for 4 days. Following incubation for 4 days, SYTOX green nucleic acid stain (Life Technologies [Thermo Fisher Scientific]) was added to the wells at a final concentration of 1 μM and incubated at room temperature for 30 min. Cells were then fixed using 4% formaldehyde (Electron Microscopy Sciences), washed 3 times with PBS followed by blocking and permeabilization using 3% Bovine Serum Albumin (BSA; Sigma) and 0.3% Triton X-100 (Sigma) in PBS. Cells were then stained with antibody specific to α-smooth muscle actin (aSMA; Abcam) (ref. 1 and 2 above) in 3% Bovine Serum Albumin (BSA; Sigma) and 0.3% Triton X-100 (Sigma) in PBS, and incubated overnight at 4° C. Cells were then washed 3 times with PBS, followed by incubation with Alexa Flor-647 conjugated secondary antibody (Life Technologies [Thermo Fisher Scientific]) and DAPI at room temperature for 1 hour. Cells were then washed 3 times with PBS and plates were sealed for imaging. aSMA staining was imaged by excitation at 630 nm and emission at 665 nm and quantified using the Compartmental Analysis program on the CellInsight CX5 (Thermo Scientific). Dead or apoptotic cells were excluded from analysis based on positive SYTOX green staining. % of total cells positive for aSMA were counted in each well and normalized to the average of 11 wells treated with TGF-β1 on the same plate using Dotmatics' Studies Software. The normalized averages (fold change over untreated) of 3 replicate wells for each compound concentration were used to create dose-responses curves and EC50 values were calculated using non-linear regression curve fit in the Dotmatics' Studies Software. For EC50 of >10 μM, the percent inhibition at 10 μM is provided.

Compound	EC50 (SW480 colon cancer cells) [nM]	EC50 (IL-6) [nM]	EC50 [1] [nM]	inhibition at 10 µM (IL-6) [%]	inhibition at 10 µM ([1]; given for EC50 >10 μM, TGF-β1, αSMA, 10 μM, read-out: percent inhibition at 10 μM) [%]	inhibition at 10 µM (SW480 colon cancer cells) [%]
Cc1ccncc1-c1ccc2[nH]nc(-c3cc4c(-c5cccnc5)cncc4[nH]3)c2n1 [Compound 89, 5-(4-Methylpyridin-3-yl)-3-(4-(pyridin-3-yl)-1H-pyrrolo[2,3-c]pyridin-2-yl)-1H-pyrazolo[4,3-b]pyridine]	8840	424	1540			
FC1(F)CCN(Cc2cncc(-c3ccc4[nH]nc(-c5cc6c(-c7cccnc7)cncc6[nH]5)c4n3)c2)C1 [Compound 110, 5-(5-((3,3-Difluoropyrrolidin-1-yl)methyl)pyridin-3-yl)-3-(4-(pyridin-3-yl)-1H-pyrrolo[2,3-c]pyridin-2-yl)-1H-pyrazolo[4,3-b]pyridine]	4860	380	329			
Nc1cncc(-c2ccc3[nH]nc(-c4cc5c(-c6ccncc6)cncc5[nH]4)c3n2)c1 [Compound 115, 5-(3-(4-(Pyridin-4-yl)-1H-pyrrolo[2,3-c]pyridin-2-yl)-1H-pyrazolo[4,3-b]pyridin-5-yl)pyridin-3-amine]	> 10000	1030	6650			7.6
c1cc(-c2cncc3[nH]c(-c4n[nH]c5ccc(-c6cncc(CN7CCCCC7)c6)nc45)cc23)ccn1 [Compound 127, 5-(5-(Piperidin-1-ylmethyl)pyridin-3-yl)-3-(4-(pyridin-4-yl)-1H-pyrrolo[2,3-c]pyridin-2-yl)-1H-pyrazolo[4,3-b]pyridine]	5260	2860	4960			
c1ccc(-c2ccc3[nH]nc(-c4cc5ccncc5[nH]4)c3n2)nc1 [Compound 280, 5-(Pyridin-2-yl)-3-(1H-pyrrolo[2,3-c]pyridin-2-yl)-1H-pyrazolo[4,3-b]pyridine]	> 10000	> 10000	1250	47.2		3.3

These reach a lower EC50 (SW480 colon cancer cells). Values come first.

EC50 (SW480 colon cancer cells) [nM]	EC50 (IL-6) [nM]	Compound	EC50 [1] [nM]	inhibition at 10 µM (IL-6) [%]	inhibition at 10 µM ([1]; given for EC50 >10 μM, TGF-β1, αSMA, 10 μM, read-out: percent inhibition at 10 μM) [%]	inhibition at 10 µM (SW480 colon cancer cells) [%]
4610	> 10000	Fc1cccc(-c2cncc3[nH]c(-c4n[nH]c5ccc(-c6cncc(CN7CCCCC7)c6)nc45)cc23)c1 [Compound 15, 3-(4-(3-Fluorophenyl)-1H-pyrrolo[2,3-c]pyridin-2-yl)-5-(5-(piperidin-1-ylmethyl)pyridin-3-yl)-1H-pyrazolo[4,3-b]pyridine]	> 10000	51.3		
3120	235	O=C(Nc1cncc(-c2ccc3[nH]nc(-c4cc5ccncc5[nH]4)c3n2)c1)C1CCCC1 [Compound 274, N-(5-(3-(1H-Pyrrolo[2,3-c]pyridin-2-yl)-1H-pyrazolo[4,3-b]pyridin-5-yl)pyridin-3-yl)cyclopentanecarboxamide]	656			
2310	> 10000	O=C(Nc1cncc(-c2ccc3[nH]nc(-c4cc5c(-c6ccc(F)cc6)cncc5[nH]4)c3n2)c1)c1ccccc1 [Compound 39, N-(5-(3-(4-(4-Fluorophenyl)-1H-pyrrolo[2,3-c]pyridin-2-yl)-1H-pyrazolo [4,3-b]pyridin-5-yl)pyridin-3-yl)benzamide]	> 10000	33.1	39.8	
1860	> 10000	Cc1ccncc1-c1ccc2[nH]nc(-c3cc4c(-c5ccc(F)cc5)cncc4[nH]3)c2n1 [Compound 33, 3-(4-(4-Fluorophenyl)-1H-pyrrolo[2,3-c]pyridin-2-yl)-5-(4-methylpyridin-3-yl)-1H-pyrazolo[4,3-b]pyridine]	1760	37.8		
827	177	Fc1ccc(-c2cncc3[nH]c(-c4n[nH]c5ccc(-c6cncc(CN7CCC(F)(F)C7)c6)nc45)cc23)cc1 [Compound 54, 5-(5-((3,3-Difluoropyrrolidin-1-yl)methyl)pyridin-3-yl)-3-(4-(4-fluorophenyl)-1H-pyrrolo[2,3-c]pyridin-2-yl)-1H-pyrazolo[4,3-b]pyridine]	370			
557	1150	CN(C)Cc1cncc(-c2ccc3[nH]nc(-c4cc5c(-c6ccccc6F)cncc5[nH]4)c3n2)c1 [Compound 69, 1-(5-(3-(4-(2-Fluorophenyl)-1H-pyrrolo[2,3-c]pyridin-2-yl)-1H-pyrazolo [4,3-b]pyridin-5-yl)pyridin-3-yl)-N,N-dimethylmethanamine]	1120			
475	266	Fc1cccc(-c2cncc3[nH]c(-c4n[nH]c5ccc(-c6cccnc6)nc45)cc23)c1 [Compound 4, 3-(4-(3-Fluorophenyl)-1H-pyrrolo[2,3-c]pyridin-2-yl)-5-(pyridin-3-yl)-1H-pyrazolo[4,3-b]pyridine]	272			
357	38	CN(C)c1cncc(-c2ccc3[nH]nc(-c4cc5c(-c6cccc(F)c6)cncc5[nH]4)c3n2)c1 [Compound 7, 5-(3-(4-(3-Fluorophenyl)-1H-pyrrolo[2,3-c]pyridin-2-yl)-1H-pyrazolo[4,3-b]pyridin-5-yl)-N,N-dimethylpyridin-3-amine]	450			
